Consider one compound from US9650616B2, “Methods for increasing grain yield” (University of Florida Research Foundation, Inc., priority 2014, dated 2017).

Usually Km stands for the concentration of substrate that gives half-maximal velocity.

Substitutions are numbered along the chain they refer to.

Test [1] concerns the target T1, maize endosperm AGPase, large subunit variant RGRR (Q96R, D161G, A443R, S444R; numbering of SEQ ID NO: 20) (Zea mays, UniProt P55241+Q84PF5, A443R/D161G/Q96R/S444R).
T1 sequence (P55241 46-516 A443R/D161G/Q96R/S444R): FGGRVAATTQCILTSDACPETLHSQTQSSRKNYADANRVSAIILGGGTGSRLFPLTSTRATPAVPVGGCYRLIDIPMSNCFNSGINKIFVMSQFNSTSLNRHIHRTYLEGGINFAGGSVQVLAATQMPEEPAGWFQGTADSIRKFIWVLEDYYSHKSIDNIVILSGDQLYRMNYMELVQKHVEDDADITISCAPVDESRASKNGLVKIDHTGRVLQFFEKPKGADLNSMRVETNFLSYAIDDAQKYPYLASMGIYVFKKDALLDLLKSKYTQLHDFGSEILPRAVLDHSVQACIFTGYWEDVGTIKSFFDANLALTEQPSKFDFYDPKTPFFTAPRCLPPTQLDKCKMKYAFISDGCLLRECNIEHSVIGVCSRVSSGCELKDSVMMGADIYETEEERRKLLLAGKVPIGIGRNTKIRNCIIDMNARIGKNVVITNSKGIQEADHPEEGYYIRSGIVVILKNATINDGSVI
T1 sequence (Q84PF5 1-474): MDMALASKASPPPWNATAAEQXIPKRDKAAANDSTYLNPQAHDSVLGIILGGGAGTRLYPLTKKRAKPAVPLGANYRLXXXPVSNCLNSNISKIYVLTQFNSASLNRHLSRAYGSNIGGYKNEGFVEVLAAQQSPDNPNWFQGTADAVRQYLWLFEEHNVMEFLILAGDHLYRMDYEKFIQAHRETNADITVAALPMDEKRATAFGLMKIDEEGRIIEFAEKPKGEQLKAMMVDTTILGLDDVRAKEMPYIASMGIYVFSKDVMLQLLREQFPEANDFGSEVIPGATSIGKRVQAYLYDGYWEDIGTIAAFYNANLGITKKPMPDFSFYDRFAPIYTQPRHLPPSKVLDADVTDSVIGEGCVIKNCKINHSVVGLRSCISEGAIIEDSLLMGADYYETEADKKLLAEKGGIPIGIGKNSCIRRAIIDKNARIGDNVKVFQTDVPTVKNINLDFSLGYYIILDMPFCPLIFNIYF
The experiment in a line: Apparent kinetic constants with 3-PGA, 37° C., RGRR. It counts as biochemical. The settings on record: read-out: ATP Km. From the text: (§1) The small and large subunit plasmids of maize endosperm AGPase (pMONcBt2 and pMONcSh2, respectively) (Giroux et al., 1996) were expressed in E. coli AC70R1-504 cells (Iglesias et al., 1993) as previously described (Boehlein et al., 2008).
(§2) An endpoint assay was used to determine the rate of the AGPase reaction by coupling the formation of PPi to a decrease in NADH concentration (Boehlein et al., 2008). […] The Michaelis constants (Km) were obtained by varying one substrate in the presence of saturating concentrations of the second substrate. The activation constants were obtained by varying the activator at fixed levels of both substrates. All reactions were performed at 37° C. and mixes were prewarmed before starting the reaction with enzyme. […] The absorbance at 340 nm was monitored after 30 min and the amount of PPi produced was determined from a standard curve using PPi in complete reaction mixtures lacking AGPase. Blank samples contained complete reaction mixtures without enzyme and the change in absorbance between the blank and the reaction was used to calculate the amount of PPi produced. […]
(§3) The apparent Michaelis constant and maximum velocity of each reaction was calculated from a V vs. S plots using nonlinear regression analysis and the following equation, v=VmaxS/(Km+S), where v is the measured velocity, Vmax is the maximum velocity, S is the substrate concentration. […]

Test [2] has as its target T2, maize endosperm AGPase, large subunit variant GGRA (Q96G, D161G, A443R, Q289A; numbering of SEQ ID NO: 20) (Zea mays, UniProt P55241+Q84PF5, A443R/D161G/Q289A/Q96G).
T2 sequence (P55241 46-516 A443R/D161G/Q289A/Q96G): T1 sequence (P55241 46-516 A443R/D161G/Q96R/S444R) with R51G, Q244A, R399S
T2 sequence (Q84PF5 1-474): T1 sequence (Q84PF5 1-474)
The experiment in a line: Apparent kinetic constants with 3-PGA, 37° C., GGRA. The class given is biochemical. The settings on record: read-out: ATP Km.
Source text: as §1, §2, §3

The target in test [3] is T3, maize endosperm AGPase, evolutionary mutant SH2-E (Zea mays, UniProt P55241+Q84PF5).
T3 construct: data of Boehlein et al., 2013
The test can be described thus: Apparent kinetic constants with 3-PGA, 37° C., SH2-E. The class given is biochemical. As to conditions: read-out: ATP Km. Here is the method:
as §2, §3
Each mutant, comprising 1, 2, 3 or 4 changes, was grown in a large scale culture, expressed and purified according to standard procedures (Boehlein et al., 2005). […] Next, the activation constant, Ka, was determined for each of the mutant enzymes. […]

Test [4] deals with maize endosperm AGPase, heat stable ISM mutants. The experiment in a line: Apparent kinetic constants with 3-PGA, 37° C., ISM mutants collectively. It counts as biochemical, Zea mays. As to conditions: mutants versus wt maize, in the presence of 3-PGA. The method, then:
An endpoint assay was used to determine the rate of the AGPase reaction by coupling the formation of PPi to a decrease in NADH concentration (Boehlein et al., 2008). […] The Michaelis constants (Km) were obtained by varying one substrate in the presence of saturating concentrations of the second substrate. The activation constants were obtained by varying the activator at fixed levels of both substrates. All reactions were performed at 37° C. and mixes were prewarmed before starting the reaction with enzyme. Reactions were terminated by boiling the reaction mixes for 2 minutes followed by development with 200 μl of coupling reagent (25 mM imidazole pH 7.4, 4 mM MgCl2, 1 mM EDTA, 0.2 mM NADH, 0.725 U aldolase, 0.4 U triose phosphate isomerase, 0.6 U glycerophosphate dehydrogenase, 1 mM fructose 6-phosphate and 0.8 μg purified PPi-PFK per reaction). The absorbance at 340 nm was monitored after 30 min and the amount of PPi produced was determined from a standard curve using PPi in complete reaction mixtures lacking AGPase. Blank samples contained complete reaction mixtures without enzyme and the change in absorbance between the blank and the reaction was used to calculate the amount of PPi produced. Reactions were linear with time and enzyme concentration.
The apparent Michaelis constant and maximum velocity of each reaction was calculated from a V vs. S plots using nonlinear regression analysis and the following equation, v=VmaxS/(Km+S), where v is the measured velocity, Vmax is the maximum velocity, S is the substrate concentration. The activation constant (Ka) was obtained using the following equation: V=Vmin+Vmax*(X)/(Ka+X), where Vmin is the velocity in the absence of activator and Vmax is the change in activity from Vmin to the total velocity. X is the activator concentration, Ka is the activation constant. All linear regression was carried out using the software program Prism (Graph Pad, San Diego Calif.).
Each mutant, comprising 1, 2, 3 or 4 changes, was grown in a large scale culture, expressed and purified according to standard procedures (Boehlein et al., 2005). […] Thus, the effects of these mutations on the kinetic constants are minimal. Next, the activation constant, Ka, was determined for each of the mutant enzymes. Here a decrease in the Ka for each of the mutants of approximately 3-6 fold was observed. This property appears to stem from the D161G change, and includes all enzymes which carry this mutation (Table 8). To be certain the effect is the result of the D161G mutation, and not the result of other single mutant changes, Q96R and Q96G were purified and characterized.

T3 sequence (P55241 46-516, change not shown, one chain of several): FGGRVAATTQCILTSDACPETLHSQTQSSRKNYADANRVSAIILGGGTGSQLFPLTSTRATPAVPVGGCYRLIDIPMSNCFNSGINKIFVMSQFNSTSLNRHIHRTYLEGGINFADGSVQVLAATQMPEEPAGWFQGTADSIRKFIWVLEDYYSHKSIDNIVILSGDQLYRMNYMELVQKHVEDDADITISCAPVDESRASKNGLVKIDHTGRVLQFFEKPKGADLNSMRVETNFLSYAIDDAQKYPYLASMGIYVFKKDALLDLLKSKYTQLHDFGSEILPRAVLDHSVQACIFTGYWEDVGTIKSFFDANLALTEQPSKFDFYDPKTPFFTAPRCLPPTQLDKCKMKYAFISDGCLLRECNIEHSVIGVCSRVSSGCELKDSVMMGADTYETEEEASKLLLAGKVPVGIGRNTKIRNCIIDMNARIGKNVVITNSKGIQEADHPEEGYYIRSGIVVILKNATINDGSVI

Regarding `Nc1ncnc2c1ncn2[C@@H]1O[C@H](COP(=O)(O)OP(=O)(O)OP(=O)(O)O)[C@@H](O)[C@H]1O` [ATP], the Km in test [1] came out at 38 µM; in test [2], 57 µM; in test [3], 100 µM. For the same compound, the “largest variation in Km” value in test [4] is reported as “approximately two-fold”.
